# Results from publication PMC8977034, “Amphipathic dendritic poly-peptides carrier to deliver antisense oligonucleotides against multi-drug resistant bacteria in vitro and in vivo” (Journal of Nanobiotechnology, 2022).
# How the values were obtained:
# ESBLs-E. coli [1] = experiment: Bacterial load (CFU) in organs of septic mice; type: in vivo, male Balb/c mice; conditions: text 1.5 mg kg^−1, methods 4 mg kg^−1; ten hours after infection; mean ± SE
# Protocol: Two mice in each group were sacrificed 10 h after infection to study the bacterial clearance. The liver and kidney were harvested aseptically, one kidney and one lobe of liver of each mouse were weighed, and homogenized in 500 μl sterile saline solution, then 50 μl homogenate sample of each mice was performed serial tenfold dilutions to a 10^–5 dilution. Carefully spread 100 μL of each dilution onto a M–H agarose plate using a glass spreader. Incubate plates at 37 °C overnight and calculate the bacterial load. Colony counts were expressed as CFU g^−1 of tissue.
# ESBLs-E. coli [2] = experiment: Survival assay in mouse sepsis model; type: in vivo, male Balb/c mice; conditions: text 1.5 mg kg^−1, methods and Fig. 5 legend 4 mg/kg; i.p. at 0.5 and 6 h after infection; n = 10
# Protocol: Male Balb/c mice (6–8 weeks old and weighing 18–22 g) were used in this experiment. The experimental and animal care procedures were approved by the Animal Care and Use Committee of Fourth Military Medical University. All methods were carried out strictly in accordance with the approved guidelines. 4 × 10^5 CFU ESBLs-E. coli in 400 μl M–H broth were administrated intraperitoneally into the mice to construct a sepsis model. Then, the mice were randomly divided to ten groups, which were administered intraperitoneally with 400 μL solutions containing 0.5 (based on ASOs), 1 or 1.5 mg kg^−1 DP-AD7anti-acpP and the counterpart DP-AD7mismatch, 1.5 mg kg^−1 L-DP-AD7anti-acpP, 1.5 mg kg^−1 LF2000-NPsanti-acpP, 4 mg kg^−1 ceftazidime or PBS at 0.5 and 6 h after infection. The surviving mice in each group were monitored every 6 h for the first day, afterwards, monitored every 12 h for 7 days day after infection, and the survival ratio was analyzed by Kaplan–Meier estimator.
# [3] = tested on: E. coli, ESBLs-E. coli, S. aureus and MRSA; experiment: Delivery efficiency by flow cytometry, tested strains together; type: cell-based; conditions: FAM-labeled, 1 h, 37 °C, flow cytometry (Fig. S9, S10)
# Protocol: To measure the delivery efficiency, FAM-labeled DP-AD were added to bacterial cultures (approximately 5 × 10^6 CFU in 300 μl M–H broth) and incubated at 37 °C for 1 h away from light. The bacterial solutions were centrifuged at 2500 g at 4 °C for 5 min and washed twice with phosphate buffered saline (PBS) before analyzing them using the BL1 (green) channel in flow cytometry (Novocyte, Acer, USA). Data were analyzed using Flowjo software (version 10.0.7, Tree Star, Ashland, OR, USA). Free FAM-labeled ASOs and LF2000-NPs were used as the negative and positive control, respectively.
# To measure the delivery rate of DP-AD7 in different types of bacteria, the bacteria (approximately 5 × 10^6 CFU in 300 μl M–H broth) were incubated with FAM-labeled DP-AD7 for 5, 10, 30 or 60 min at 37 °C or at 4 °C for 60 min in dark, then the bacterial solutions were processed, measured and analyzed as described above.
Molecule,"Average bacterial load in the kidney, ceftazidime (ESBLs-E. coli [1])","Survival rate of septic mice, ceftazidime (ESBLs-E. coli [2])",Capacity to deliver ASOs into bacteria [3]
CC(C)(O/N=C(\C(=O)N[C@@H]1C(=O)N2C(C(=O)[O-])=C(C[n+]3ccccc3)CS[C@H]12)c1csc(N)n1)C(=O)O [ceftazidime],8.41 ± 1.60 × 10^7 CFU g^−1,30%,–
"Ac-LWALWK(Ac)K(Ac)K(Ac)RRHRRRHR [L-DPP, linear counterpart of DPP7, amphipathic, 9 positive charge and 2 His residues]",–,–,failure
